Like-named read-outs stand apart in the source and are kept apart here.
How the values were obtained:
[1] = system: KYSE-150 esophageal carcinoma cell line; assay: In vitro cell-based assay: BrdU cell proliferation ELISA; design: species or system human; conditions: KYSE-150 cells, BrdU incorporation after 168 hr of compound incubation, read-out: Cellular IC50
Experimental: Cell lines tested include the JMJD2C gene amplified cell line KYSE-150. This is a quantitative ELISA assay measuring DNA incorporation of BrdU during S-phase as a direct readout of cellular proliferation.
Assay Principle: This is a colorimetric immunoassay for the quantification of cell proliferation. Cells treated for 168 hr with test compounds are assayed for their ability to go through S-phase as a measure of their proliferative potential.
Assay Method: The human KYSE-150 (SMAD4 mut, TP53 mut) esophageal carcinoma cell line was seeded at 2,000 cells/well on a 96-well tissue culture treated plate. After an overnight incubation, cells were treated with compound in an 11-point dilution series with final concentrations ranging from 100 μM to 2 nM. Cells were then incubated in the presence of compound for 168 hr. After compound incubation the cells were assayed using a BrdU Cell Proliferation ELISA (Roche). The cells were first incubated with BrdU labeling reagent for 2 hr. After 2 hr, the BrdU incorporated cells were fixed and denatured, probed with an anti-BrdU-Peroxidase antibody for 1.5 hr and washed. Finally, a tetramethylbenzidine peroxidase substrate was added to each well for 15 min. followed by a H2SO4 stop solution. The plate was read at 450 nm, and the raw optical density data was transferred into XLFit (IDBS) for IC50 calculation using the formula: fit=(D+((Vmax*(x^n))/((x^n)+(Km^n)))).
Table 4 provides the cellular IC50 values of various compounds disclosed herein.

JMJD2C = JMJD2C (Homo sapiens (Human), UniProt Q9H3R0); assay: In vitro enzyme inhibition assay (JMJD2C TR-FRET); type: biochemical; conditions: 0.3 nM JMJD2C, 300 nM H3K9me3-biotin peptide, 2 μM alpha-ketoglutaric acid
Experimental: This assay determines the ability of a test compound to inhibit JMJD2C demethylase activity. Baculovirus expressed JMJD2C (GenBank Accession #BC143571, AA 2-372) was purchased from BPS Bioscience (Cat#50105).
The ability of test compounds to inhibit the activity of JMJD2C was determined in 384-well plate-format under the following reaction conditions: 0.3 nM JMJD2C, 300 nM H3K9me3-biotin labeled peptide (Anaspec cat #64360), 2 μM alpha-ketoglutaric acid in assay buffer of 50 mM HEPES, pH 7.3, 0.005% Brij35, 0.5 mM TCEP, 0.2 mg/ml BSA, 50 μM sodium L-ascorbate, and 2 μM ammonium iron(II) sulfate. Reaction product was determined quantitatively by TR-FRET after the addition of detection reagent Phycolink Streptavidin-allophycocyanin (Prozyme) and Europium-anti-di-methylated histone H3 lysine 9 (H3K9me2) antibody (PerkinElmer) in the presence of 5 mM EDTA in LANCE detection buffer (PerkinElmer) at a final concentration of 50 nM and 1 nM, respectively.
The assay reaction was initiated by the following: 2 μl of the mixture of 900 nM H3K9me3-biotin labeled peptide and 6 μM alpha-ketoglutaric acid with 2 μl of 11-point serial diluted inhibitor in 3% DMSO were added to each well of the plate, followed by the addition of 2 μl of 0.9 nM JMJD2C to initiate the reaction. The reaction mixture was incubated at room temperature for 30 min, and terminated by the addition of 6 μl of 5 mM EDTA in LANCE detection buffer containing 100 nM Phycolink Streptavidin-allophycocyanin and 2 nM Europium-anti-H3K9me2 antibody. Plates were read by EnVisionMultilabel Reader in TR-FRET mode (excitation at 320 nm, emission at 615 nm and 665 nm) after 1 hr incubation at room temperature. A ratio was calculated (665/615) for each well and fitted to determine inhibition constant (IC50).
The ability of the compounds disclosed herein to inhibit demethylase activity was quantified and the respective IC50 value was determined. Table 3 provides the IC50 values of various compounds disclosed herein.

Chain of JMJD2C (Q9H3R0 2-372): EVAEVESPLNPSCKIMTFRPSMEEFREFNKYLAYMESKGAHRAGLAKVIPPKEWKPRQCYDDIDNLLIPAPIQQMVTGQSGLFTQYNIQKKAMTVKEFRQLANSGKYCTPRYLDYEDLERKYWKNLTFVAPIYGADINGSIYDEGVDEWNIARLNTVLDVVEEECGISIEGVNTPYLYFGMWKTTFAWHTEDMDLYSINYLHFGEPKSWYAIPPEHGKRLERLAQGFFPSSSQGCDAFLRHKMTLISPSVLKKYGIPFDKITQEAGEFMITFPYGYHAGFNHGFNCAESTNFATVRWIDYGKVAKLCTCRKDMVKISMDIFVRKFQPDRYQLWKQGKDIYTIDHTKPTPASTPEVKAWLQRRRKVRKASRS

Compound | IC50 ([1]; Homo sapiens) | IC50 (JMJD2C) | IC50 [1]
CC(C)c1ccc(N(c2ccc(Oc3nc(O)c4ccncc4n3)cc2)C2CCOCC2)cc1 [Example 118, 2-(4-((4-isopropylphenyl)(tetrahydro-2H-pyran-4-yl)amino)phenoxy)pyrido[3,4-d]pyrimidin-4-ol] | 1 to 10 µM |  | 
Cc1cc(Oc2nc(O)c3ccncc3n2)ccc1N(C)c1ccc(C(C)(C)C)cc1 [Example 148, 2-(4-((4-(tert-butyl)phenyl)(methyl)amino)-3-methylphenoxy)pyrido[3,4-d]pyrimidin-4-ol] |  | 0.1 to 1 µM | 
CC(C)CN(c1ccc(Oc2nc(O)c3ccncc3n2)cc1)c1ccc(C(C)C)cc1 [Example 123, 2-(4-(isobutyl(4-isopropylphenyl)amino)phenoxy)pyrido[3,4-d]pyrimidin-4-ol] |  | 1 to 10 µM | 
Cc1ccc(N2CCN(C)CC2)cc1N(C)c1ccc(Oc2nc(O)c3ccncc3n2)cc1 [Example 147, 2-(4-(methyl(2-methyl-5-(4-methylpiperazin-1-yl)phenyl)amino)phenoxy)pyrido[3,4-d]pyrimidin-4-ol] |  | ≤ 0.1 µM | 
CCOc1ccc(N2CCN(C)CC2)cc1N(C)c1ccc(Oc2nc(O)c3ccncc3n2)cc1 [Example 146, 2-(4-((2-ethoxy-5-(4-methylpiperazin-1-yl)phenyl)(methyl)amino)phenoxy)pyrido[3,4-d]pyrimidin-4-ol] |  | ≤ 0.1 µM | 
CC(C)c1ccc(N(c2ccc(Oc3nc(O)c4ccncc4n3)cc2)C(C)C)cc1 [Example 122] |  | 1 to 10 µM | 
CC(C)c1ccc(N(C)c2ccc(Oc3nc(O)c4ccncc4n3)cc2C(F)(F)F)cc1 [Example 143, 2-(4-((4-isopropylphenyl)(methyl)amino)-3-(trifluoromethyl)phenoxy)pyrido[3,4-d]pyrimidin-4-ol] |  | 1 to 10 µM | 
CN1CCN(c2cccc(N(CC3CC3)c3ccc(Oc4nc(O)c5ccncc5n4)cc3)c2)CC1 [Example 142, 2-(4-((cyclopropylmethyl)(3-(4-methylpiperazin-1-yl)phenyl)amino)phenoxy)pyrido[3,4-d]pyrimidin-4-ol] |  | ≤ 0.1 µM | 
CN1CC=C(c2cccc(N(C)c3ccc(Oc4nc(O)c5ccncc5n4)cc3)c2)CC1 [Example 139, 2-(4-(methyl(3-(1-methyl-1,2,3,6-tetrahydropyridin-4-yl)phenyl)amino)phenoxy)pyrido[3,4-d]pyrimidin-4-ol] |  | ≤ 0.1 µM | 
CC(C)c1ccc(N(c2ccc(Oc3nc(O)c4ccncc4n3)cc2)C2CCN(C)CC2)cc1 [Example 119, 2-(4-((4-isopropylphenyl)(1-methylpiperidin-4-yl)amino)phenoxy)pyrido[3,4-d]pyrimidin-4-ol] | > 10 µM | ≤ 0.1 µM | 
CN1CCN(c2cccc(N(C)c3ccc(Oc4nc(O)c5ccncc5n4)cc3C(F)(F)F)c2)CC1 [Example 133, 2-(4-(methyl(3-(4-methylpiperazin-1-yl)phenyl)amino)-3-(trifluoromethyl)phenoxy)pyrido[3,4-d]pyrimidin-4-ol] | 1 to 10 µM | ≤ 0.1 µM | 
CCN1CCN(c2cccc(N(C)c3ccc(Oc4nc(O)c5ccncc5n4)cc3)c2)CC1 [Example 138, 2-(4-((3-(4-ethylpiperazin-1-yl)phenyl)(methyl)amino)phenoxy)pyrido[3,4-d]pyrimidin-4-ol] | 1 to 10 µM | ≤ 0.1 µM | 
CC(C)c1ccc(N(c2ccc(Oc3nc(O)c4ccncc4n3)cc2)C2CCCC2)cc1 [Example 125, 2-(4-(cyclopentyl(4-isopropylphenyl)amino)phenoxy)pyrido[3,4-d]pyrimidin-4-ol] | ≤ 0.1 µM | 1 to 10 µM | 
CCCN(c1ccc(Oc2nc(O)c3ccncc3n2)cc1)c1ccc(C(C)C)cc1 [Example 120, 2-(4-((4-isopropylphenyl)(propyl)amino)phenoxy)pyrido[3,4-d]pyrimidin-4-ol] | 1 to 10 µM | 0.1 to 1 µM | 
CC(C)c1ccc(N(c2ccc(Oc3nc(O)c4ccncc4n3)cc2)C2CCNC2)cc1 (centres unmarked) [Example 126, 2-(4-((4-isopropylphenyl)(pyrrolidin-3-yl)amino)phenoxy)pyrido[3,4-d]pyrimidin-4-ol] | ≤ 0.1 µM | ≤ 0.1 µM | 
CC(C)c1ccc(N(c2ccc(Oc3nc(O)c4ccncc4n3)cc2)C2CCCN(C)C2)cc1 (centres unmarked) [Example 124, 2-(4-((4-isopropylphenyl)(1-methylpiperidin-3-yl)amino)phenoxy)pyrido[3,4-d]pyrimidin-4-ol] | 1 to 10 µM | ≤ 0.1 µM | 
CC(C)N1CCN(c2cccc(N(C)c3ccc(Oc4nc(O)c5ccncc5n4)cc3)c2)CC1 [Example 132, 2-(4-((3-(4-isopropylpiperazin-1-yl)phenyl)(methyl)amino)phenoxy)pyrido[3,4-d]pyrimidin-4-ol] | 0.1 to 1 µM |  | 
CC(C)c1ccc(N(c2ccc(Oc3nc(O)c4ccncc4n3)cc2)C2CCCNC2)cc1 (centres unmarked) [Example 130, 2-(4-((4-isopropylphenyl)(piperidin-3-yl)amino)phenoxy)pyrido[3,4-d]pyrimidin-4-ol] | > 10 µM | ≤ 0.1 µM | 
Cc1ccc2c(ccn2-c2ccc(Oc3nc(O)c4ccncc4n3)cc2)c1 [Example 129, 2-(4-(5-methyl-1H-indol-1-yl)phenoxy)pyrido[3,4-d]pyrimidin-4-ol] | 1 to 10 µM | ≤ 0.1 µM | 
CN1CCN(c2cc(N(C)c3ccc(Oc4nc(O)c5ccncc5n4)cc3)ccc2OCC(F)(F)F)CC1 [Example 136, -(4-(methyl(3-(4-methylpiperazin-1-yl)-4-(2,2,2-trifluoroethoxy)phenyl)amino)phenoxy)pyrido[3,4-d]pyrimidin-4-ol] | 1 to 10 µM | ≤ 0.1 µM | 
Cc1cc(Oc2nc(O)c3ccncc3n2)ccc1N(C)c1cccc(N2CCN(C)CC2)c1 [Example 134, 2-(3-methyl-4-(methyl(3-(4-methyl-piperazin-1-yl)phenyl)amino)phenoxy)pyrido[3,4-d]pyrimidin-4-ol] | 1 to 10 µM | ≤ 0.1 µM | 
CN1CCC(c2cccc(N(C)c3ccc(Oc4nc(O)c5ccncc5n4)cc3)c2)CC1 [Example 140, 2-(4-(methyl(3-(1-methylpiperidin-4-yl)phenyl)amino)phenoxy)pyrido[3,4-d]pyrimidin-4-ol] | 0.1 to 1 µM | ≤ 0.1 µM | 
CCc1ccc(N(C)c2ccc(Oc3nc(O)c4ccncc4n3)cc2)cc1OC [Example 135, 2-(4-((4-ethyl-3-methoxyphenyl)(methyl)amino)phenoxy)pyrido[3,4-d]pyrimidin-4-ol] | 1 to 10 µM | 0.1 to 1 µM | 
COc1ccc(N2CCN(C)CC2)cc1N(C)c1ccc(Oc2nc(O)c3ccncc3n2)cc1 [Example 145, 2-(4-((2-methoxy-5-(4-methylpiperazin-1-yl)phenyl)(methyl)amino)phenoxy)pyrido[3,4-d]pyrimidin-4-ol] |  | ≤ 0.1 µM | 
CCc1ccc(N(C)c2ccc(Oc3nc(O)c4ccncc4n3)cc2)c(OC)c1 [Example 137, 2-(4-((4-ethyl-2-methoxyphenyl)(methyl)amino)phenoxy)pyrido[3,4-d]pyrimidin-4-ol] | > 10 µM | 0.1 to 1 µM | 
2-(4-{[4-(4-amino-piperidin-1-yl)-phenyl]-methyl-amino}-phenoxy)-pyrido[3,4-d]pyrimidin-4-ol [Example 23] |  | 0.1 to 1 µM | 1 to 10 µM
CN(c1ccc(Oc2nc(O)c3ccncc3n2)cc1)c1ccc2c(c1)OCC2(C)C [Example 116] |  | 0.1 to 1 µM | 
CCc1ccc(N(C)c2ccc(Oc3nc(O)c4ccncc4n3)cc2C)cc1 [Example 144, 2-(4-((4-ethylphenyl)(methyl)amino)-3-methylphenoxy)pyrido[3,4-d]pyrimidin-4-ol] |  | ≤ 0.1 µM | 
CCCc1ccc(N(C)c2ccc(Oc3nc(O)c4ccncc4n3)cc2C)cc1 [Example 149, 2-(3-methyl-4-(methyl(4-propylphenyl)amino)phenoxy)pyrido[3,4-d]pyrimidin-4-ol] |  | 0.1 to 1 µM | 

From US10202381B2, “Histone demethylase inhibitors” (CELGENE QUANTICEL RESEARCH, INC., priority 2014, dated 2019)
